Patent publication US20050277586A1, “Peptide chemically modified with polyethylene glycol” (priority 2002, published 2005)

Key:
[1] = test system: Vero cell, T24 cell, A549 cell; test: Nucleic acid-introducing ability, luciferase-expressing plasmid (procedure of Example 9); type: cell-based
From the text: A cell line established from monkey kidney (Vero cell) and a human bladder cancer cell (T24 cell) purchased from American Type Culture Collection (ATCC) and human lung cancer cell (A549 cell) purchased from Dainippon Pharmaceutical were inoculated on a 24 well culture plate (manufactured by NALGEN NUNC) at 1×10^5 cells/well. Vero cell and A549 cell were cultivated in DMEM (manufactured by Life Technologies Oriental) supplemented with 10% fetal bovine serum (hereinafter referred to as FBS, manufactured by NICHIREI), and T24 cell was cultivated in McCoy's 5a (manufactured by Life Technologies Oriental) supplemented with 10% FBS in 5% CO2 atmosphere at 37° C. for 24 hours. After removing the medium, opti-MEM (manufactured by Life Technologies Oriental) prepared to have the concentration of the luciferase-expressing plasmid prepared in Example 7 of 1 μg/mL and the concentration of the peptide prepared in Example 1 of 1.25, 2.5, or 5 μM was added, and the cells were cultivated for 5 hours. Next, in the case of Vero cell and A549 cell, the culture medium was replaced with DMEM supplemented with 10% FBS, and in the case of T24 cell, the medium was replaced with McCoy's 5a supplemented with 10% FBS, and cultivation was continued in 5% CO2 atmosphere and at 37° C. for another 24 hours. The luciferase activity expressed in the cell was then measured by the method instructed in luciferase assay system (manufactured by Promega). To be more specific, the cells were washed with phosphate-buffered saline (hereinafter referred to as PBS, manufactured by SIGMA), and the cells were lyzed with Passive Lysis Buffer attached to the kit.
(§1) 20 μL of this cell lysate and 100 μL of the Luciferase Assay Reagent II attached to the kit was added to a fluorescence-measuring plate (Microlite™ 1 plate, manufactured by Dynatech), and after mixing, fluorescence was measured for 1 second by using a multilabel counter (ARVO™ SY1420 MULTILABEL COUNTER, manufactured by Wallac Beltold.
Concentration of the protein in the cell lysate was measured by mixing 8 μL of the cell lysate and 200 μL of the protein assay solution (manufactured by Biorad) with 792 μL of ultrapure water in a disposable cuvette (UV fluorescent cuvette A204X, manufactured by Funakoshi), allowing the mixture to stand for 5 minutes at room temperature, and measuring the absorption at 595 nm with a spectrophotometer (DU640, manufactured by Beckman). Bovine serum albumin (BSA) was used for the standard protein. By using the thus obtained results, count per 1 second per 1 mg of protein of the cell lysate was calculated to thereby use the count as the luciferase activity, and the highest count in the three conditions of different peptide concentration was designated the gene-introducing ability of the peptide.

[2] = Affinity for phosphatidyl serine by surface plasmon resonance (Biacore 2000); type: binding; settings: in the presence of 0.1 mg/mL BSA
Procedure: The specific affinity of the peptide for phosphatidyl serine was evaluated by means of surface plasmon resonance (SPR) using Biacore 2000 (manufactured by Biacore). To be more specific, phosphatidyl choline was immobilized on flow cell 1, and 50% of phosphatidyl serine and 50% of phosphatidyl choline were immobilized on flow cell 2 of HPA chip (manufactured by Biacore), and ability of the peptide to bind to the phospholipid was evaluated in the presence of 0.1 mg/mL BSA to thereby evaluate the affinity.

Vero cell [3] = test: Accumulation of FITC-labeled oligonucleotide in cell nucleus; type: cell-based, monkey; settings: 300 nM FITC-labeled oligonucleotide, 2.5 μM peptide
Procedure: Vero cell was inoculated in the well of a chamber slide (Lab-Tek II chamber slide, size 4 well, manufactured by NALGEN NUNC) at a rate of 1×10^5 cells/well, and the cells were cultivated in DMEM supplemented with 10% FBS in 5% CO2 atmosphere at 37° C. for 24 hours. After removing the medium, opti-MEM containing 300 nM FITC-labeled oligonucleotide prepared in Example 6 and 2.5 μM of the peptide of SEQ ID NO: 1 prepared in Example 1 was added, and the cultivation was continued for 4 hours. The medium was replaced with DMEM supplemented with 10% FBS, and the cultivation was continued in 5% CO2 atmosphere at 37° C. for another 24 hours. After washing the cell with PBS, the cells were fixed by using PBS containing 4% paraformaldehyde, and accumulation of FITC-labeled oligonucleotide in the cell nucleus was confirmed by using a fluorescence microscope (AH-3, manufactured by Olympus). […] On the other hand, accumulation of FITC-labeled oligonucleotide in the cell was not confirmed in the absence of the peptide of SEQ ID NO: 1.

T24 cell = test: Luciferase-expressing plasmid introduction into T24 cell; type: cell-based, human
From the text: (§2) A cell line established from monkey kidney (Vero cell) and a human bladder cancer cell (T24 cell) purchased from American Type Culture Collection (ATCC) and human lung cancer cell (A549 cell) purchased from Dainippon Pharmaceutical were inoculated on a 24 well culture plate (manufactured by NALGEN NUNC) at 1×10^5 cells/well. Vero cell and A549 cell were cultivated in DMEM (manufactured by Life Technologies Oriental) supplemented with 10% fetal bovine serum (hereinafter referred to as FBS, manufactured by NICHIREI), and T24 cell was cultivated in McCoy's 5a (manufactured by Life Technologies Oriental) supplemented with 10% FBS in 5% CO2 atmosphere at 37° C. for 24 hours. […] The luciferase activity expressed in the cell was then measured by the method instructed in luciferase assay system (manufactured by Promega). […]
as §1, with “Beltold. […]” for “Beltold.”

Vero cell [4] = test: Luciferase-expressing plasmid introduction into Vero cell; type: cell-based, monkey
From the text: as §2
as §1, with “Beltold. […]” for “Beltold.”

For “TRYLRIHPRSWVHQIALRLRYLRIHPRSWVHQIALRS [SEQ ID NO: 1]”, which Nucleic acid-introducing ability ([1]; luciferase plasmid 1 μg/mL, highest count of peptide 1.25, 2.5 or 5 μM, cell line not stated) is on record?
The Nucleic acid-introducing ability was 3+ (1,000,000 to less than 10,000,000).

And the “Ability of introducing the nucleic acid into a cell” value ([1]; procedure of Example 9)?
Its value is “found to have the ability of introducing the nucleic acid into a cell”.

What about the “Binding to flow cell 2 (50% phosphatidyl serine, 50% phosphatidyl choline) and flow cell 1 (phosphatidyl choline)” value [2] of the same sequence?
The value was “stronger”.

What about the “Accumulation of FITC-labeled oligonucleotide in the cell nucleus” value (Vero cell [3]) of the same sequence?
The value was “FITC-labeled oligonucleotide was accumulated in the cell nucleus”.

What about the Luciferase activity (T24 cell) of the same sequence?
Its Luciferase activity is 7.8 × 10^3 cps/mg protein.

What about the Luciferase activity (Vero cell [4]) of the same sequence?
The Luciferase activity was 2.5 × 10^6 cps/mg protein.
